Assay results as given in patent US6642392B1 (priority 1997, dated 2003).
Like-named read-outs stand apart in the source and are kept apart here.

How the values were obtained:
Format in all cases: in vivo
[1] = tested on: Eiysiphe graminis f. sp. tritici; assay: Test A: wheat powdery mildew, preventive spray on wheat seedlings; details: for Test A disease control rating: wheat powdery mildew; for Test A disease control rating (100 = 100% disease control, 0 = no disease control): wheat seedlings sprayed to run-off, inoculated the following day, rating relative to controls, unmarked compounds (standard test rate)
How it was run: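 Preventive test: seedlings inoculated with powdery mildew spores one day after run-off spraying of a suspension. Ratings after 7 days in a 20° C growth chamber express percent disease control versus controls.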

[2] = tested on: Puccinia recondita; assay: Test B: wheat leaf rust, preventive spray on wheat seedlings; details: for Test B disease control rating: wheat leaf rust; for Test B disease control rating (100 = 100% disease control, 0 = no disease control): wheat seedlings sprayed to run-off, inoculated the following day, rating relative to controls, unmarked compounds (standard test rate)
How it was run: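 Preventive test: P. recondita spores were applied one day after a run-off spray of compound suspension on wheat seedlings. Plants had 24 h at 20 °C in saturated air plus 6 days in a 20 °C growth chamber. Scoring is % disease control (100 = full) relative to controls.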

[3] = tested on: Pyricularia oryzae; details: for Test C disease control rating: rice blast; for Test C disease control rating (100 = 100% disease control, 0 = no disease control): rice seedlings sprayed to run-off, inoculated the following day, rating relative to controls, unmarked compounds (standard test rate)
[4] = tested on: Phytophthora infestans; details: for Test D disease control rating: tomato late blight; for Test D disease control rating (100 = 100% disease control, 0 = no disease control): tomato seedlings sprayed to run-off, inoculated the following day, rating relative to controls, unmarked compounds (standard test rate)
[5] = tested on: Botrytis cinerea; assay: Test E: gray mold, preventive spray on cucumber seedlings; details: for Test E disease control rating: gray mold on cucumber; for Test E disease control rating (100 = 100% disease control, 0 = no disease control): cucumber seedlings sprayed to run-off, inoculated the following day, rating relative to controls, unmarked compounds (standard test rate)
How it was run: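 Preventive spray on cucumber seedlings used a suspension (3% acetone, 250 ppm Trem 014), applied to run-off one day before inoculation with Botrytis cinerea spores. Plants were held 48 h at 20° C in saturated air, then 5 days at 20° C. Percent disease control was scored relative to untreated plants.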

[6] = 100 = 100% disease control, 0 = no control relative to controls, unmarked entries (standard test concentration)
[7] = 100 = 100% disease control, 0 = no control, unmarked entries (standard test concentration)

Cc1c(Cl)cc(C#N)n1OCC(C)NC(=O)C(C#N)C(C)(C)C (mixture of isomers) [compound 49]
Test A disease control rating [1, 6]: 0%
Test B disease control rating [2, 7]: 0%
Test C disease control rating [3, 7]: 0%
Test D disease control rating [4, 7]: 0%
Test E disease control rating [5, 7]: 0%

CCC1(C(=O)NCCOc2ccccc2)C(C)C1(Cl)Cl (centres unmarked) [compound 153]
Test A disease control rating [1, 6]: 92%
Test B disease control rating [2, 7]: 64%
Test C disease control rating [3, 7]: 94%
Test D disease control rating [4, 7]: 92%
Test E disease control rating [5, 7]: 0%

CC(CCn1cc(Cl)cc1C#N)NC(=O)C(C#N)C(C)(C)C (mixture of isomers) [compound 53]
Test A disease control rating [1, 6]: 0%
Test B disease control rating [2, 7]: 0%
Test C disease control rating [3, 7]: 53%
Test D disease control rating [4, 7]: 0%
Test E disease control rating [5, 7]: 0%

CC(COn1c(Cl)c(Cl)c(Cl)c1C#N)NC(=O)C(C#N)C(C)(C)C (mixture of isomers) [compound 52]
Test A disease control rating [1, 6]: 71%
Test B disease control rating [2, 7]: 86%
Test C disease control rating [3, 7]: 0%
Test D disease control rating [4, 7]: 81%
Test E disease control rating [5, 7]: 0%

CCC1(C(=O)NC(C)COc2ccc(Cl)cc2)C(C)C1(Cl)Cl (mixture of isomers) [83b]
Test A disease control rating ([1]; tested at 40 ppm): 52%
Test B disease control rating ([2]; tested at 40 ppm): 0%
Test C disease control rating ([3]; tested at 40 ppm): 53%
Test D disease control rating ([4]; tested at 40 ppm): 0%
Test E disease control rating ([5]; tested at 40 ppm): 0%

CCC1(C(=O)NC(C)COc2cc(F)cc(F)c2F)C(C)C1(Cl)Cl (centres unmarked) [compound 109]
Test A disease control rating ([1]; tested at 40 ppm): 52%
Test B disease control rating ([2]; tested at 40 ppm): 0%
Test C disease control rating ([3]; tested at 40 ppm): 53%
Test D disease control rating ([4]; tested at 40 ppm): 0%
Test E disease control rating ([5]; tested at 40 ppm): 0%

C[C@H](COc1cc(F)ccc1Cl)NC(=O)C(C#N)C(C)(C)C (single isomer, unassigned) [191b]
Test A disease control rating [1, 6]: 0%
Test B disease control rating [2, 7]: 0%
Test C disease control rating [3, 7]: 100%
Test D disease control rating [4, 7]: 47%
Test E disease control rating [5, 7]: 55%

CCC1(C(=O)NC(C)C=Cc2ccc(Cl)cc2Cl)C(C)C1(Cl)Cl (centres unmarked) [compound 266]
Test A disease control rating (100 = 100% disease control, 0 = no disease control) [1]: 63%
Test B disease control rating (100 = 100% disease control, 0 = no disease control) [2]: 0%
Test C disease control rating (100 = 100% disease control, 0 = no disease control) [3]: 91%
Test D disease control rating (100 = 100% disease control, 0 = no disease control) [4]: 74%
Test E disease control rating (100 = 100% disease control, 0 = no disease control) [5]: 0%

C[C@H](COc1ccc(Cl)c(F)c1)NC(=O)C(C#N)C(C)(C)C (single isomer, unassigned) [182a]
Test A disease control rating [1, 6]: 0%
Test B disease control rating [2, 7]: 0%
Test C disease control rating [3, 7]: 0%
Test D disease control rating [4, 7]: 0%
Test E disease control rating [5, 7]: 0%

CC(C=Cc1cc(F)ccc1F)NC(=O)C(C#N)C(C)(C)C (single isomer, unassigned) [229a]
Test A disease control rating (100 = 100% disease control, 0 = no disease control) [1]: 0%
Test B disease control rating (100 = 100% disease control, 0 = no disease control) [2]: 0%
Test C disease control rating (100 = 100% disease control, 0 = no disease control) [3]: 100%
Test D disease control rating (100 = 100% disease control, 0 = no disease control) [4]: 0%
Test E disease control rating (100 = 100% disease control, 0 = no disease control) [5]: 55%

CCC1(C(=O)NC(C)COc2ccc(Cl)cc2F)C(C)C1(Cl)Cl (centres unmarked) [compound 120]
Test A disease control rating ([1]; tested at 40 ppm): 29%
Test B disease control rating ([2]; tested at 40 ppm): 0%
Test C disease control rating ([3]; tested at 40 ppm): 52%
Test D disease control rating ([4]; tested at 40 ppm): 19%
Test E disease control rating ([5]; tested at 40 ppm): 0%

C[C@H](COc1c(F)cc(F)cc1F)NC(=O)C(C#N)C(C)(C)C (single isomer, unassigned) [189a]
Test A disease control rating [1, 6]: 0%
Test B disease control rating [2, 7]: 0%
Test C disease control rating [3, 7]: 97%
Test D disease control rating [4, 7]: 0%
Test E disease control rating [5, 7]: 6%

CCC1(C(=O)NC(C)COc2cc(F)c(F)cc2C#N)C(C)C1(Cl)Cl (mixture of isomers) [compound 257]
Test A disease control rating (100 = 100% disease control, 0 = no disease control) [1]: 0%
Test B disease control rating (100 = 100% disease control, 0 = no disease control) [2]: 0%
Test C disease control rating (100 = 100% disease control, 0 = no disease control) [3]: 0%
Test D disease control rating (100 = 100% disease control, 0 = no disease control) [4]: 0%
Test E disease control rating (100 = 100% disease control, 0 = no disease control) [5]: 0%

C=CC(C)(CC)C(C#N)C(=O)NC(C)COc1cc(F)ccc1F (mixture of isomers) [compound 296]
Test A disease control rating (100 = 100% disease control, 0 = no disease control) [1]: 0%
Test B disease control rating (100 = 100% disease control, 0 = no disease control) [2]: 0%
Test C disease control rating (100 = 100% disease control, 0 = no disease control) [3]: 100%
Test D disease control rating (100 = 100% disease control, 0 = no disease control) [4]: 24%
Test E disease control rating (100 = 100% disease control, 0 = no disease control) [5]: 0%

CCC1(C(=O)NCCCc2ccccc2)C(C)C1(Cl)Cl (centres unmarked) [compound 155]
Test A disease control rating [1, 6]: 71%
Test B disease control rating [2, 7]: 0%
Test C disease control rating [3, 7]: 86%
Test D disease control rating [4, 7]: 23%
Test E disease control rating [5, 7]: 0%

CC(COc1ccccc1Br)NC(=O)C(C#N)C(C)(C)C (mixture of isomers) [8a]
Test A disease control rating [1, 6]: 0%
Test B disease control rating [2, 7]: 0%
Test C disease control rating [3, 7]: 85%
Test D disease control rating [4, 7]: 0%
Test E disease control rating [5, 7]: 7%

CC(COc1cc(F)ccc1C#N)NC(=O)C(C#N)C(C)(C)C (mixture of isomers) [compound 41]
Test A disease control rating [1, 6]: 62%
Test B disease control rating [2, 7]: 0%
Test C disease control rating [3, 7]: 97%
Test D disease control rating [4, 7]: 66%
Test E disease control rating [5, 7]: 47%

C=CC(C)(CF)C(C#N)C(=O)NC(C)COc1cc(F)ccc1Cl (mixture of isomers) [compound 220]
Test A disease control rating (100 = 100% disease control, 0 = no disease control) [1]: 0%
Test B disease control rating (100 = 100% disease control, 0 = no disease control) [2]: 0%
Test C disease control rating (100 = 100% disease control, 0 = no disease control) [3]: 100%
Test D disease control rating (100 = 100% disease control, 0 = no disease control) [4]: 85%
Test E disease control rating (100 = 100% disease control, 0 = no disease control) [5]: 0%

CCC1(C(=O)NCC=Cc2cccc(F)c2)C(C)C1(Cl)Cl (centres unmarked) [compound 264]
Test A disease control rating (100 = 100% disease control, 0 = no disease control) [1]: 0%
Test B disease control rating (100 = 100% disease control, 0 = no disease control) [2]: 0%
Test C disease control rating (100 = 100% disease control, 0 = no disease control) [3]: 90%
Test D disease control rating (100 = 100% disease control, 0 = no disease control) [4]: 54%
Test E disease control rating (100 = 100% disease control, 0 = no disease control) [5]: 94%

C[C@H](COc1cccc(C(F)(F)F)c1)NC(=O)C(C#N)C(C)(C)C (single isomer, unassigned) [18b]
Test A disease control rating [1, 6]: 77%
Test B disease control rating [2, 7]: 0%
Test C disease control rating [3, 7]: 94%
Test D disease control rating [4, 7]: 0%
Test E disease control rating [5, 7]: 0%

CC(COc1cccc(Br)c1)NC(=O)C(C#N)C(C)(C)C (mixture of isomers) [9a]
Test A disease control rating [1, 6]: 0%
Test B disease control rating [2, 7]: 0%
Test C disease control rating [3, 7]: 53%
Test D disease control rating [4, 7]: 0%
Test E disease control rating [5, 7]: 0%

CCC(C#N)C(=O)N[C@H](C)[C@H](Oc1ccccc1C#N)c1ccccc1 (some centres unmarked) [compound 304]
Test A disease control rating (100 = 100% disease control, 0 = no disease control) [1]: 0%
Test B disease control rating (100 = 100% disease control, 0 = no disease control) [2]: 0%
Test C disease control rating (100 = 100% disease control, 0 = no disease control) [3]: 97%
Test D disease control rating (100 = 100% disease control, 0 = no disease control) [4]: 0%
Test E disease control rating (100 = 100% disease control, 0 = no disease control) [5]: 0%
